Here are results for four compounds from patent US7585851B2, “3′-prodrugs of 2′-deoxy-β-L-nucleosides” (priority 2000, dated 2009).

For series [1] the following is noted: monkey, in vivo, po.
Series [2] deals with human hepatoma cell line 2.2.15. The series is described as follows: Cytotoxicity in 2.2.15 cells. Particulars: 2.2.15 cells; 50% inhibition of neutral red dye uptake (Table 25).
Another series concerns HepG2 cells. Conditions: human, 24 h, 10 μM.
In series [3] the test system is primary human hepatocytes. Conditions: 24 h, 10 μM.
The next series addresses human DNA polymerase β (Homo sapiens, UniProt P06746). It is filed as biochemical. Particulars: highest concentration tested 100 μM; read-out: IC50 Human DNA pol β. An excerpt: (§1) Nucleosides and nucleoside analogs are usually metabolized within cells to their TP derivatives. Cellular DNA polymerases are routinely responsible for normal nuclear and mitochondrial DNA synthesis and repair. Because the TP metabolites are potential substrates for DNA polymerases, studies were undertaken to determine if L-dC-TP inhibited human DNA polymerases.

The target of the next series is T1, human DNA polymerase γ (Homo sapiens, UniProt P54098).
T1 sequence (P54098 1-1239): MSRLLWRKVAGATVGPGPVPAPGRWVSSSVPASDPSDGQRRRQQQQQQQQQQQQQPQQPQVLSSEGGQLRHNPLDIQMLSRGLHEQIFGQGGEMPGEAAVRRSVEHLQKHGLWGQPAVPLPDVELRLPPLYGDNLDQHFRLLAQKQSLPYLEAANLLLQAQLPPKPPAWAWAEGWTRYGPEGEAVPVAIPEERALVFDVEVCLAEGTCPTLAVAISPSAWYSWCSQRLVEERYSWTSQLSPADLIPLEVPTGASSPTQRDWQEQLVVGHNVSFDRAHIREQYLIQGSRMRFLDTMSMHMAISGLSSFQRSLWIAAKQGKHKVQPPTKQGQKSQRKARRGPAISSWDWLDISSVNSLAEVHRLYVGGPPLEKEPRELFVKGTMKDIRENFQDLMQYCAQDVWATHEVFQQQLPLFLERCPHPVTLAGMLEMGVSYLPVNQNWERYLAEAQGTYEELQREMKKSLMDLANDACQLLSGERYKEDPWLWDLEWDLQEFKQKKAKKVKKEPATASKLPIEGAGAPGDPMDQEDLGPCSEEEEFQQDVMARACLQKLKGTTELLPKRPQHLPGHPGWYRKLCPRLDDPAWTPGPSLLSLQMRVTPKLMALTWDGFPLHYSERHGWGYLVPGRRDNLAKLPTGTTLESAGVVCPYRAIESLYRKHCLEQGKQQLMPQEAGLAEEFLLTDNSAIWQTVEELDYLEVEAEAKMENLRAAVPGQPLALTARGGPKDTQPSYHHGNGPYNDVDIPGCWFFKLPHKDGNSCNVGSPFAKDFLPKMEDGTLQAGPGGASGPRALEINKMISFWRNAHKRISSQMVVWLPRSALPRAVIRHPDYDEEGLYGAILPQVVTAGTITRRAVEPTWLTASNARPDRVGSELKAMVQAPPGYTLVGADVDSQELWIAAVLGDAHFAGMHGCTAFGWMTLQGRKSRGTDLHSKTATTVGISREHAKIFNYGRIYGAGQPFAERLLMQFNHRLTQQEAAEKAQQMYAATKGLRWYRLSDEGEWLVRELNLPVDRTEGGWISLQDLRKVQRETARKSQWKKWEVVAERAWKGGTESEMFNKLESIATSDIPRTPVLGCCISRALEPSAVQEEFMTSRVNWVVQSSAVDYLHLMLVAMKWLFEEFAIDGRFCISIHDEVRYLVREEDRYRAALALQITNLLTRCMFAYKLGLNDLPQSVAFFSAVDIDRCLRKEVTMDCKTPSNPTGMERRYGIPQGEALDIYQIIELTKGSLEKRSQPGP
It counts as biochemical. Conditions: highest concentration tested 100 μM.
From the text: as §1

In series [4] the target is virion-associated DNA polymerase of WHV (Woodchuck hepatitis B virus, UniProt P03160). The series is described as follows: biochemical.
Chain of virion-associated DNA polymerase of WHV (P03160 whole entry): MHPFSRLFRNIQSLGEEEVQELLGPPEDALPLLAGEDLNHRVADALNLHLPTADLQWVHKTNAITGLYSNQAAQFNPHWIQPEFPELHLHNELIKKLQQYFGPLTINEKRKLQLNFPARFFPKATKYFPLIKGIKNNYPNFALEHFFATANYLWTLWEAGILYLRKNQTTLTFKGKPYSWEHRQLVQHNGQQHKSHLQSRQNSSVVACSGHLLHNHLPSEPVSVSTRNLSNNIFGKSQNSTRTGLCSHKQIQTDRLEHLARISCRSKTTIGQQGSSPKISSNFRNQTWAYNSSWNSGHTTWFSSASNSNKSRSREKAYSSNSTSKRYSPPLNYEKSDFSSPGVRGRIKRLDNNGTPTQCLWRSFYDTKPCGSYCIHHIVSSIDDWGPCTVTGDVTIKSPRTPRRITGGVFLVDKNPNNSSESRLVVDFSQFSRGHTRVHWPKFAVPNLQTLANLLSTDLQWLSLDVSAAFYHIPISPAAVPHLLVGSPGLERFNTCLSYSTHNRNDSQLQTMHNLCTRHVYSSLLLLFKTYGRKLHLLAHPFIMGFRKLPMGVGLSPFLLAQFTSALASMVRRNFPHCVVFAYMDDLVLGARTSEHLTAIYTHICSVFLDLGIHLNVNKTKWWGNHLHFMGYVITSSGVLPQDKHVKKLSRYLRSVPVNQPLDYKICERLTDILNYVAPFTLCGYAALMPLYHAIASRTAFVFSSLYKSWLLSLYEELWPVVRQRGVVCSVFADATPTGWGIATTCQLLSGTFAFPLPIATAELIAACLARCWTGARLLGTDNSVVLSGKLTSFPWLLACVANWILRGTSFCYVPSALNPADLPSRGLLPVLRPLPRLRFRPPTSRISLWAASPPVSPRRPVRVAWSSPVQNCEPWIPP
A short description of series [5]: Cytotoxicity in 2.2.15 cells. Conditions: human, 2.2.15 hepatoma cells.
In series [6] the test system is human erythroid burst-forming (BFU-E) progenitor cells. It counts as cell-based. Particulars: human bone marrow clonogenic assay. An excerpt: (§2) In particular, anemia and neutropenia are the most common drug-related clinical toxicities associated with the anti-HIV drug zidovudine (ZDV).
The subject of series [7] is human granulocyte-macrophage colony-forming (CFU-GM) progenitor cells. It counts as cell-based. Particulars: human bone marrow clonogenic assay.
From the text: as §2

Another series deals with HBV. As to the kind of experiment: Anti-HBV activity in HBV-expressing 2.2.15 cells (HBV DNA reduction).

SMILES strings stand for the structures.

Turning to `CC(=O)OC[C@@H]1O[C@H](n2ccc(N)nc2=O)C[C@H]1OC(C)=O` [3′5′-diacetyl-L-dC, 3′,5′-Di-O-acetyl-2′-deoxy-β-L-cytidine], the “% BA (bioavailability of L-dC)” value in [1] is on record as 23.0 ± 6.5%.

In turn, `Cc1cn([C@@H]2C[C@@H](O)[C@H](CO)O2)c(=O)[nH]c1=O` [L-dT, β-L-2′-deoxythymidine] registered a CC50 in series [2] of 3.02 mM.

Take `O=c1ccn([C@@H]2C[C@@H](O)[C@H](COP(=O)(O)OP(=O)(O)OP(=O)(O)O)O2)c(=O)[nH]1` [L-dU-TP, β-L-2′-deoxyuridine 5′-triphosphate]: the intracellular metabolite level with HepG2 cells was 18.2 ± 1.0 µM; in series [3] it was 43.5 ± 27 µM. Moreover, the half-maximal inhibitory concentration (IC50) is above 100 µM on human DNA polymerase β, above 100 µM on human DNA polymerase γ and 5.26 µM in series [4].

Turning to `Nc1ccn([C@@H]2CS[C@H](CO)O2)c(=O)n1` [lamivudine, (−)-enantiomer of cis-2-hydroxymethyl-5-(cytosin-1-yl)-1,3-oxathiolane, reference compound], the cytotoxic concentration (CC50) in [5] was above 1 mM. Besides, the IC50 in series [6] and in series [7] was above 10 µM throughout. The “S.I. (CC50/EC90)” value with HBV (2.2.15 cells) is on record as >5,000. In the series on HBV (Hepatitis B virus), this compound showed an EC90 of 180 ± 7 nM.

As a reminder, the CC50 is the concentration giving 50% cytotoxicity. The low end stands for greater toxicity to the cells, the high end for lower toxicity to the cells. By IC50 is commonly meant the midpoint of a concentration-inhibition curve. A word on the EC90: it is the point of the concentration-response curve where the effect stands at 90%. Higher therefore signals a need for much substance.
